Assay results published in patent US7956082B2, “Indole derivative having PGD2 receptor antagonist activity” (Shionogi & Co., Ltd, priority 2005, dated 2011).
Where a name gives a salt, the structure may show the parent alone.

Key:
[1] = molecular target: T1, DP receptor (Homo sapiens, UniProt Q13258); assay: cAMP assay with washed platelets (DP inhibitory activity in vitro); type: cell-based; details: 100 nM PGD2, cAMP by HTRF, read-out: IC50 (50% DP-inhibitory concentration in the cAMP assay)
T1 construct: endogenous in cells; host or cells: washed platelets from peripheral blood of a healthy volunteer (whole platelets in A1, platelet membrane fraction in A2)
T1 sequence (Q13258 1-359): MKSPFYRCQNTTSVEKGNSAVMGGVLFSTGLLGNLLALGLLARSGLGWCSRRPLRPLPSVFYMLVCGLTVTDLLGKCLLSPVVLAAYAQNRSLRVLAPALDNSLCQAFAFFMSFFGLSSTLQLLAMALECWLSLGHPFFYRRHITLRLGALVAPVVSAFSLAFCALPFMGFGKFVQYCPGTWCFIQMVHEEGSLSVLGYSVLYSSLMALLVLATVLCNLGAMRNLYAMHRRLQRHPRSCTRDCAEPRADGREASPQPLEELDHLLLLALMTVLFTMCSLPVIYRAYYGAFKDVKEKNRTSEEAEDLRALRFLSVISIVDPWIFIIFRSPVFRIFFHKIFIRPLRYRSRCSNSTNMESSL
Method: 1) Preparation of Platelet and a Method of cAMP Assay
30 ml of peripheral blood was collected from a healthy volunteer using a syringe containing one ninth amount of 3.8% sodium citrate for diagnosis. After being centrifuged at 180 g for 10 minutes at room temperature, a supernatant was collected and used as Platelet Rich Plasma (PRP). The resulting PRP was washed with wash buffer and centrifuged three times (Washed Platelet: WP) and platelets were counted by a microcell counter. WP was added to a plate in amount of 1.5×10^8/assay and the plate was treated, with 3-isobutyl-1-methylxanthin (IBMX; 0.5 mM) for 5 minutes. A reaction was initiated by adding 100 nM of PGD2 5 min after an addition of a test compound. The reaction was terminated with an addition of 1N HCl after 2 minutes and the cells were destructed using 12% triton X-100. An amount of cAMP in the supernatant was assayed by Homogeneous […] (HTRF)

[2] = molecular target: T1, DP receptor; assay: Receptor binding assay, [3H]-PGD2, platelet membrane; details: [3H]-PGD2, human platelet membrane, on ice 2 hours
Method: 2) Receptor Binding Assay A prepared WP was homogenated and a membrane fraction was collected with high-speed centrifugation. A compound of the present invention or a reference compound A(No. IC-73 in WO 2003/097598) was added to the plate and [^3H]-PGD2 was also added. A platelet membrane, a protein concentration is 2 mg/mL, was added and mixed in the plate, and placed on ice for 2 hours. The reaction solution was transferred to a low protein-adsorptive filter and washed with a wash solution eight times using a cell harvester. After the final washing, water was removed sufficiently, and micoscinti was added. DP inhibitory activity was investigated by measuring [^3H] by using Micro Beta.

[3] = test system: Brown Norway (BN) Rats; assay: Test using OVA asthma model of rat; type: in vivo; details: 10 mg/kg p.o. once a day for three days, vs control group; for inhibition rate (%) increased hyperresponsive airway: AUC of acetylcholine response curve; for inhibition rate (%) mucus-secretion: mucin in airway lavage fluid; for inhibition rate (%) infiltration of inflammatory cells: total cell number in bronchoalveolar washings
Method: Brown Norway (BN) Rats were sensitized by i.p. administration of 0.1 mg/mL of ovalbumin (OVA) and 1 mg of aluminum hydroxide gel. A solution of 1% OVA was aerosolized by ultrasonic nebulizer (NE-U17) and the rats were subjected to inhalation exposure of the aerosol for 30 minutes in an exposing chamber 12, 19, 26 and 33 days after the sensitization. One hour before the 4th exposure of the antigen, compounds of the present invention were administered in a dose of 10 mg/kg p.o. once a day for three days consecutively. In a control group, 0.5% of methyl cellulose was administered in place of the compound of the present invention.
Under pentobarbital anesthesia (80 mg/kg, i.p.), acetylcholine (3.9, 7.8, 15.6, 31.3, 62.5, 125, 250 and 500 μg/kg) was injected to jugular vein of the rats successively from a lower dose at intervals of 5 minutes three days after the fourth exposure to the antigen, and immediate contractile reaction of airways (an increase of insufflation pressure) was measured by a modified method of Konnzett & Rössler. Inhibition rate of increased hyperresponsive airway against the control group was calculated based on area under curve (AUC) obtained from concentration-response curve of acetylcholine.
After the measurement of increased hyperresponsive airway was; completed, bronchoalveoli of the rats were washed with 5 mL of saline three times. Total cell number in the washings was counted by a hemacytometer under light microscope, and inhibition rates of infiltration of inflammatory cells against the control group were calculated. Further, muchin in the airway lavage fluid was measured by ELIZA method using jacalin, a muchin-binding lectin, and the inhibition rates of mucus-secretion against the control group were calculated.

SMILES | IC50 [1] [nM] | Ki [2] [nM] | further results
COc1ccc(-c2ccc3c(C4CCN(S(=O)(=O)c5ccc(OC(C)C)cc5)C4)cn(CC(=O)O)c3c2)cc1 (stereo not drawn) [Compound I-74] | 1.9 | – | –
CC(C)Oc1ccc(S(=O)(=O)N2CCC(c3cn(CC(=O)O)c4cc(-c5ccco5)ccc34)C2)cc1 (stereo not drawn) [Compound I-77] | 0.62 | 0.37 | inhibition rate (%) increased hyperresponsive airway [3]: 110%; inhibition rate (%) mucus-secretion [3]: 72%; inhibition rate (%) infiltration of inflammatory cells [3]: 28%
CC(C)Oc1ccc(S(=O)(=O)N2CCC(c3cn(CC(=O)O)c4c(Cl)cc(Cl)cc34)C2)cc1 (stereo not drawn) [Compound I-45] | 1.5 | 19 | –
CC(C)Oc1ccc(S(=O)(=O)N2CC[C@H](c3cn(CC(=O)O)c4ccc(Cl)cc34)C2)cc1 (as salt: TFA) [Compound I-62] | – | – | melting point: 188 to 189 °C
CC(C)Oc1ccc(S(=O)(=O)N2CC[C@@H](c3cn(CC(=O)O)c4ccc(Cl)cc34)C2)cc1 [Compound I-65] | 0.34 | 2.3 | inhibition rate (%) increased hyperresponsive airway [3]: 62%; inhibition rate (%) mucus-secretion [3]: 40%; inhibition rate (%) infiltration of inflammatory cells [3]: 61%
CC(C)Oc1ccc(S(=O)(=O)N2CC[C@@H](c3cn(CC(=O)O)c4ccc(Cl)cc34)C2)cc1 (as salt: TFA) [Compound I-65] | – | – | melting point: 167 °C
CC(C)Oc1ccc(S(=O)(=O)N2CCC(c3cn(CC(=O)O)c4cc(-c5ccc(C#N)cc5)ccc34)C2)cc1 (stereo not drawn) [Compound I-72] | 2.2 | – | –
CC(C)Oc1ccc(S(=O)(=O)N2CCC(c3cn(CC(=O)O)c4cc(F)ccc34)C2)cc1 (stereo not drawn) [Compound I-34] | 2.3 | 3.4 | –
CC(C)Oc1ccc(S(=O)(=O)N2CCC(c3cn(CC(=O)O)c4cc(-c5cccs5)ccc34)C2)cc1 (stereo not drawn) [Compound I-66] | 1.9 | – | –
CC(C)Oc1ccc(S(=O)(=O)N2CCC(c3cn(CC(=O)O)c4cc(N5CCOCC5)ccc34)C2)cc1.Cl (stereo not drawn) [Compound I-82] | – | – | inhibition rate (%) increased hyperresponsive airway [3]: 59%; inhibition rate (%) mucus-secretion [3]: 47%; inhibition rate (%) infiltration of inflammatory cells [3]: 35%
CC(C)Oc1ccc(S(=O)(=O)N2CCC(c3cn(CC(=O)O)c4cc(-c5ccoc5)ccc34)C2)cc1 (stereo not drawn) [Compound I-78] | 1.2 | – | –
CC(C)Oc1ccc(S(=O)(=O)N2CCC(c3cn(CC(=O)O)c4cc(-c5ccsc5)ccc34)C2)cc1 (stereo not drawn) [Compound I-67] | 1.4 | – | –
CC(C)Oc1ccc(S(=O)(=O)N2CCC(c3cn(CC(=O)O)c4ccc(F)cc34)CC2)cc1 [Compound I-23] | 1.9 | 2.2 | –
CC(C)Oc1ccc(S(=O)(=O)N2CCC(c3cn(CC(=O)O)c4c(Cl)cccc34)C2)cc1 (stereo not drawn) [Compound I-19] | 1.3 | 4.2 | –
CC(C)Sc1ccc(S(=O)(=O)N2CCC(c3cn(CC(=O)O)c4ccc(Cl)cc34)C2)cc1 (stereo not drawn) [Compound I-59] | 1.1 | – | –
CC(C)Oc1ccc(S(=O)(=O)N2CCC(c3cn(CC(=O)O)c4cc(-c5cccc(C#N)c5)ccc34)C2)cc1 (stereo not drawn) [Compound I-73] | 2 | – | –
CC(C)Oc1ccc(S(=O)(=O)N2CCC(c3cn(CC(=O)O)c4cc(-c5ccncc5)ccc34)C2)cc1.Cl (stereo not drawn) [Compound I-75] | 1.7 | 0.66 | inhibition rate (%) increased hyperresponsive airway [3]: 58%; inhibition rate (%) mucus-secretion [3]: 77%; inhibition rate (%) infiltration of inflammatory cells [3]: 71%
CC(C)Oc1ccc(S(=O)(=O)N2CCC(c3cn(CC(=O)O)c4cc(Br)ccc34)C2)cc1 (stereo not drawn) [Compound I-60] | 0.73 | 3.5 | –
CCOc1ccc(S(=O)(=O)N2CCC(c3cn(CC(=O)O)c4ccc(Cl)cc34)C2)cc1 (stereo not drawn) [Compound I-38] | 2 | 4.7 | –
CC(C)Oc1ccc(S(=O)(=O)N2CCC(c3cn(CC(=O)O)c4cc(Cl)ccc34)C2)cc1 (stereo not drawn) [Compound I-14] | 0.98 | 2.1 | inhibition rate (%) increased hyperresponsive airway [3]: 31%; inhibition rate (%) mucus-secretion [3]: 55%; inhibition rate (%) infiltration of inflammatory cells [3]: 57%
CC(C)Oc1ccc(S(=O)(=O)N2CCC(c3cn(CC(=O)O)c4ccc(Cl)cc34)C2)cc1 (stereo not drawn) [Compound I-10] | 1 | 2.5 | –
CC(C)Oc1ccc(S(=O)(=O)N2CCC(c3cn(CC(=O)O)c4ccc(Cl)cc34)CC2)cc1 [Compound I-3] | 1.3 | 1.3 | –
CC(C)Oc1ccc(S(=O)(=O)N2CCC(c3cn(CC(=O)O)c4ccc(F)cc34)C2)cc1 (stereo not drawn) [Compound I-9] | 2.3 | 4.5 | –

Continued, in another order:

IC50 [1] [nM] | Ki [2] [nM] | SMILES | further results
1.2 | 1.3 | CC(C)Oc1ccc(S(=O)(=O)N2CCC(c3cn(CC(=O)O)c4cc(-c5ncco5)ccc34)CC2)cc1 [Compound I-104] | –
2.3 | – | CC(C)Oc1ccc(S(=O)(=O)N2CCC(c3cn(CC(=O)O)c4cc(N5CCCC5=O)ccc34)C2)cc1 (stereo not drawn) [Compound I-107] | –
1.9 | – | CC(C)Oc1ccc(S(=O)(=O)N2CCC(c3cn(CC(=O)O)c4cc(-c5nccs5)ccc34)CC2)cc1 [Compound I-100] | –
0.14 | 20 | CC(C)Oc1ccc(S(=O)(=O)N2CC[C@@H](c3cn(CC(=O)O)c4cc(-c5ncco5)ccc34)C2)cc1 [Compound I-103] | inhibition rate (%) increased hyperresponsive airway [3]: 71%; inhibition rate (%) mucus-secretion [3]: 52%; inhibition rate (%) infiltration of inflammatory cells [3]: 58%
0.23 | 0.21 | CC(C)Oc1ccc(S(=O)(=O)N2CC[C@@H](c3cn(CC(=O)O)c4cc(-c5nccs5)ccc34)C2)cc1 [Compound I-96] | –
1.9 | – | CC(C)Oc1ccc(S(=O)(=O)N2CCC(c3cn(CC(=O)O)c4cc(-c5ccccn5)ccc34)CC2)cc1 [Compound I-99] | –
1.2 | 2.5 | CC(C)Oc1ccc(S(=O)(=O)N2CCC(c3cn(CC(=O)O)c4cc(-c5nnco5)ccc34)C2)cc1 (stereo not drawn) [Compound I-88] | –
0.19 | 0.91 | CC(C)Oc1ccc(S(=O)(=O)N2CC[C@@H](c3cn(CC(=O)O)c4cc(Cl)ccc34)C2)cc1 [Compound I-79] | –
1.4 | – | CC(C)Oc1ccc(S(=O)(=O)N2CCC(c3cn(CC(=O)O)c4cc(-c5ccc6c(c5)OCO6)ccc34)C2)cc1 (stereo not drawn) [Compound I-80] | –
0.86 | – | COc1cccc(-c2ccc3c(C4CCN(S(=O)(=O)c5ccc(OC(C)C)cc5)C4)cn(CC(=O)O)c3c2)c1 (stereo not drawn) [Compound I-81] | –
0.27 | 0.21 | CC(C)Oc1ccc(S(=O)(=O)N2CC[C@@H](c3cn(CC(=O)O)c4cc(-c5ccco5)ccc34)C2)cc1 [Compound I-101] | –
0.56 | – | CC(C)Oc1ccc(S(=O)(=O)N2CCC(c3cn(CC(=O)O)c4cc(-c5nncs5)ccc34)CC2)cc1 [Compound I-102] | –
1.3 | – | CC(C)Oc1ccc(S(=O)(=O)N2CCC(c3cn(CC(=O)O)c4cc(Br)ccc34)C2)cc1F (stereo not drawn) [Compound I-86] | –
0.5 | 0.24 | CC(C)Oc1ccc(S(=O)(=O)N2CCC(c3cn(CC(=O)O)c4cc(-c5nccs5)ccc34)C2)cc1 (stereo not drawn) [Compound I-93] | –
0.97 | – | CC(C)Oc1ccc(S(=O)(=O)N2CCC(c3cn(CC(=O)O)c4cc(C#N)ccc34)CC2)cc1 [Compound I-98] | –
